Key:
U-87 MG = assay: Dark toxicity against human U-87 MG cells incubated for 48 hrs by Alamar blue assay; type: cell-based, U-87MG ATCC
[1] = Drug localization in liver of CD-1 mouse at 25 nmol, iv measured after 4 hrs by fluorescence imaging analysis; type: ADME, organism-based; details: in vivo
[2] = Biodistribution in bone marrow of mouse implanted with mouse NIT-1 cells at 35 nmol, iv incubated for 4 to 8 hrs by fluorescence imaging analysis; type: ADME, organism-based; details: in vivo, time 4-8 hrs
Mus musculus = assay: Antitumor activity against mouse implanted with mouse NIT-1 cells assessed as tumor to background ratio at 35 nmol, iv incubated for 4 hrs by fluorescence imaging analysis; type: functional
[3] = Clearance in CD-1 mouse at 25 nmol, iv measured upto 480 mins by UV-Vis spectrophotometer method; type: ADME, organism-based; details: in vivo
[4] = Drug localization in kidney of CD-1 mouse at 25 nmol, iv measured after 4 hrs by fluorescence imaging analysis; type: ADME, organism-based; details: in vivo
[5] = Biodistribution in lymph node of mouse implanted with mouse NIT-1 cells at 35 nmol, iv incubated for 4 to 8 hrs by fluorescence imaging analysis; type: ADME, organism-based; details: in vivo, time 4-8 hrs
[6] = Phototherapeutic index, ratio of IC50 for dark cytotoxicity against human U-87 MG cells to IC50 for light cytotoxicity against human U-87 MG cells preincubated for 6 to 24 hrs followed by light irradiation for 20 min and measured after 24 hrs dark incubation by Alamar blue assay; type: cell-based, U-87MG ATCC; details: time 6-24 hrs, read-out: Ratio IC50
[7] = Terminal half life in CD-1 mouse at 25 nmol, iv measured upto 480 mins by UV-Vis spectrophotometer method; type: ADME, organism-based; details: in vivo, read-out: beta t1/2
[8] = Drug localization in lungs of CD-1 mouse at 25 nmol, iv measured after 4 hrs by fluorescence imaging analysis; type: ADME, organism-based, Lung; details: in vivo
[9] = Biodistribution in peripheral tissue of mouse implanted with mouse NIT-1 cells at 35 nmol, iv incubated for 4 to 8 hrs by fluorescence imaging analysis; type: ADME, organism-based; details: in vivo, time 4-8 hrs
[10] = Half life in CD-1 mouse blood at 25 nmol, iv measured upto 480 mins by UV-Vis spectrophotometer method; type: ADME, organism-based
[11] = Drug localization in duodenum of CD-1 mouse at 25 nmol, iv measured after 4 hrs by fluorescence imaging analysis; type: ADME, organism-based; details: in vivo

Drug uptake [1] | Drug uptake [2] | clearance [3] [mL/min/kg] | Drug uptake [4] | Drug uptake [5] | half-life [7] [h] | Drug uptake [8] | Drug uptake [9] | half-life [10] [h] | Drug uptake [11] | SMILES | IC50 (U-87 MG) [µM] | Ratio (Mus musculus) | selectivity ratio at 24 h [6]
– | – | – | – | – | – | – | – | – | – | CC1(C)C(/C=C/C2=C(Cl)C(=C/C=C3/N(CCCCCC(=O)O)c4ccccc4C3(C)C)/CCC2)=[N+](CCCCCC(=O)O)c2ccccc21 | 19.2 | – | –
Active | Active | 5 | Active | Active | 0.917 | Not Active | – | – | – | CC1(C)C(/C=C/C2=C(Cl)C(=C/C=C3/N(CCCCCC(=O)O)c4ccc(I)cc4C3(C)C)/C[N+](C)(C)C2)=[N+](CCCCCC(=O)O)c2ccc(I)cc21 | 62.4 | 8.98 | 72.8
– | – | – | – | – | – | – | – | – | – | CC1(C)C(/C=C/C2=C(Cl)C(=C/C=C3/N(CCCCCC(=O)O)c4ccccc4C3(C)C)/C[N+](C)(C)C2)=[N+](CCCCCC(=O)O)c2ccccc21 | > 100 | – | –
Active | – | 0.2 | – | – | – | – | Active | 1.93 | Active | CC1(C)C(/C=C/C2=C(Cl)C(=C/C=C3/N(CCCCCC(=O)O)c4ccc(I)cc4C3(C)C)/CCC2)=[N+](CCCCCC(=O)O)c2ccc(I)cc21 | 11.4 | 6.5 | 2.56

— ChEMBL document CHEMBL5036372, “QuatCy-I2 and MHI-I2 in Photodynamic Therapy” (ACS Med Chem Lett, 2022)
